Active and inactive are the calls of the source. No cut-off for these calls is given here.
Key:
[1] = system: Human immunodeficiency virus 1; assay: Inhibition of HIV1 LAI binding to human A431 cells relative to control; type: functional, organism-based; details: A-431
[2] = system: Human immunodeficiency virus 1; assay: Inhibition of HIV1 BaL binding to human Caco-2 cells relative to control; type: functional, organism-based
[3] = system: Human immunodeficiency virus 1; assay: Inhibition of HIV1 LAI binding to human Caco-2 cells relative to control; type: functional, organism-based
[4] = system: Human immunodeficiency virus 1; assay: Antiviral activity against HIV1 BaL assessed as logReduction in viral transmission from human A431 cells to human PBMC by ELISA; type: functional
[5] = system: Human immunodeficiency virus 1; assay: Inhibition of HIV1 BaL binding to human A431 cells relative to control; type: functional, organism-based; details: A-431

SMILES: CC(C)=CCOc1cc(NC(=S)c2ccoc2C)ccc1Cl [UC 781]
- Activity [1]: inactive
- Activity [2]: inactive
- Activity [3]: inactive
- Activity [4]: 6.1
- Activity [5]: inactive

— ChEMBL document CHEMBL1144467, “Effect of topical microbicides on infectious human immunodeficiency virus type 1 binding to epithelial cells” (2007)
